Data: patent US9034887B2, “Dihydroorotate dehydrogenase as antifungal drug target and quinazolinone-based inhibitors thereof” (F2G Limited, priority 2008, dated 2015)
Values after ≈ are worked out from the molar mass of the structure shown.

Key:
[1] = system: Aspergillus fumigatus AF210; assay: MIC in RPMI medium, A. fumigatus 210; format: cell-based; settings: 24-48 hrs at 35° C., >80% growth inhibition, read-out: MIC grade, A. fumigatus 210
Procedure: (§1) Between 1 and 5 mgs of compound were accurately weighed out into a sterile Eppendorf tube. The compound was dissolved in DMSO to give a solution containing 5 mg/mL. Tubes were stored at −20° C. until required.
(§2) On the day of testing thawed solutions were vortex mixed to ensure homogeneity. 30 μL of solution was removed and added to 570 μL of sterile water in a separate sterile Eppendorf. The thoroughly mixed solution was used to prepare a series of doubling dilutions in water, in a deep well plate. Thirteen replicate plates were prepared using a Minitrak by aspirating 20 μL from each well into eleven clear polystyrene 96 well plates.
(§3) Assays were also performed in RPMI medium. To perform MIC tests in this medium, dilutions of compounds are prepared in microtitre plates as described above. Fungal strains to be tested are grown and harvested in an identical manner to that described above, and each organism suspension was diluted in RPMI medium, containing 2% glucose and 0.135 M MOPS buffer (pH 7.0) to 0.5-2×10^4 cfu/mL, rather than in YAG medium. 80 μL of an organism suspension was added to each well of the plate containing drug dilutions.
(§4) All plates were incubated for 24-48 hrs at 35° C. Growth was assessed by monitoring the optical density at 485 nm for each well. […] The following organisms were tested: Aspergillus flavus, Aspergillus fumigatus AF293 and AF210, Aspergillus niger and Aspergillus terreus AT4 and AT49.

Aspergillus niger [2] = assay: MIC in RPMI medium, A. niger; format: cell-based; settings: 24-48 hrs at 35° C., >80% growth inhibition, read-out: MIC grade, A. niger
Procedure: as §1, §2, §3, §4

Aspergillus terreus AT49 = assay: MIC in RPMI medium, A. terreus 49; format: cell-based; settings: 24-48 hrs at 35° C., >80% growth inhibition, read-out: MIC grade, A. terreus 49
Procedure: as §1, §2, §3, §4

A. terreus 49 = assay: MIC in YAG medium, A. terreus 49; format: cell-based; settings: Aspergillus terreus, 24 hrs at 35° C., >70% growth inhibition, read-out: MIC grade, A. terreus 49
Procedure: as §1, §2
(§5) Spores of Aspergillus spp. (Aspergillus fumigatus [two strains], Aspergillus terreus [two strains], Aspergillus niger and Aspergillus flavus) were harvested from cultures grown on Sabarauds agar for 5 days, and resuspended in PBS/Tween 80 to approx 1×10^7 cfu/mL. Each organism suspension was diluted in YAG medium (1% glucose, 1% ammonium chloride and 0.5% yeast extract) to 0.5-2×10^4 cfu/mL. 80 μL of an organism suspension was added to each well of the plate containing drug dilutions.
(§6) All plates were incubated for 24 hrs at 35° C. Growth was assessed by monitoring the optical density at 485 nm for each well. The MIC of a compound is the lowest drug concentration that inhibits growth of an organism by >70% compared with a drug free control. MICs are recorded as mg/L. In cases where the MIC of an organism is […] the MIC is repeated using a concentration range of 0.5-0.0005 mg/L.

A. fumigatus 210 = assay: MIC in YAG medium, A. fumigatus 210; format: cell-based; settings: Aspergillus fumigatus, 24 hrs at 35° C., >70% growth inhibition, read-out: MIC grade, A. fumigatus 210
Procedure: as §1, §2, §5, §6

[3] = target: Recombinant A. fumigatus DHODH (Aspergillus fumigatus, UniProt Q4X169); assay: DHODH inhibition screen (DCIP reduction, 600 nm), A. fumigatus enzyme; format: biochemical
Sequence of Recombinant A. fumigatus DHODH (Q4X169 entry or part of it): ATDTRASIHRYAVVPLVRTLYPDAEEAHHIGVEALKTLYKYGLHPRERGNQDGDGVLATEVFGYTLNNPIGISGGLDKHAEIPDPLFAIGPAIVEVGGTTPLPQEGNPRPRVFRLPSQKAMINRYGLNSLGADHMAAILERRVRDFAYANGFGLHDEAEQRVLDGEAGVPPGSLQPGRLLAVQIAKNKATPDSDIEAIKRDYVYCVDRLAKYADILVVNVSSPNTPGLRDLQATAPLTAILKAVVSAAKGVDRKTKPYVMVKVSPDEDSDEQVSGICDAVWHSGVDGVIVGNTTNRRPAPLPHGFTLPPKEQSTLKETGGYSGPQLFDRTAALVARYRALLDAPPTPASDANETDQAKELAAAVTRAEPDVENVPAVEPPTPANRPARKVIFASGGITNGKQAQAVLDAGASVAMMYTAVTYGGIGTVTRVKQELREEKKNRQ
Procedure: (§7) 1. The following buffer and stock solution were prepared:
Buffer A: 62.5 mM TrisHCl (pH8.0), 150 mM NaCl, 10% v/v glycerol
DHO/Coenzyme Q2/DCIP solution: 19.848 mg dihydroorotate (DHO; Sigma) was dissolved in 160 μl DMSO. Coenzyme Q2 (Sigma) was dissolved in DMSO to give a concentration of 10 mg/ml. 7.236 mg 2,6-dichloroindophenol (DCIP; Sigma) was dissolved in 160 μl DMSO. The stock solution was made with 127.36 μl DHO, 127.36 μl DCIP and 318.4 μl Coenzyme Q2, made up to 80 ml with Buffer A. Final concentrations in assay wells were; DHO, 500 μM; Coenzyme Q, 50 μM; DCIP, 100 μM.
2. Compounds were aliquotted into 384-well microtitre plates at a range of dilutions to give final concentrations in the assay of […]. Duplicate sets of plates were used such that one set received enzyme while a control set received no enzyme. Since compounds are frequently dissolved in DMSO or a DMSO/water mixture, assays were set up to give a final concentration of 1% (v/v) DMSO in wells.
3. Recombinant A. fumigatus DHODH was suspended in Buffer A to give a concentration of 1435.8 ng protein in 20 μl. Then 20 μl of DHODH solution was added to all the +enzyme plates and 20 μl of Buffer A was added to all the control −enzyme plates.
(§8) 4. 20 μl of DHO/Coenzyme Q2/DCIP solution was added to all the wells, after which plates were incubated at room temperature for […] and then read on a Tecan Safire spectrophotometer at 600 nm.
Recombinant DHODH from human or C. albicans was assayed in the same way. It is necessary to adjust the enzyme concentration and reaction time to take into account variations in activity of enzyme batches, thus the incubation time was 20 minutes for the C. albicans enzyme and 34 minutes for the human enzyme. Compounds are screened against a fungal and human enzyme to identify compounds which are selective for the fungal enzyme.

Aspergillus fumigatus = assay: MIC in YAG medium, A. fumigatus; format: cell-based; settings: 24 hrs at 35° C., >70% growth inhibition, read-out: MIC grade, A. fumigatus
Procedure: as §1, §2, §5, §6

Aspergillus terreus AT4 = assay: MIC in RPMI medium, A. terreus; format: cell-based; settings: 24-48 hrs at 35° C., >80% growth inhibition, read-out: MIC grade, A. terreus
Procedure: as §1, §2, §3, §4

Aspergillus terreus = assay: MIC in YAG medium, A. terreus; format: cell-based; settings: 24 hrs at 35° C., >70% growth inhibition, read-out: MIC grade, A. terreus
Procedure: as §1, §2, §5, §6

Aspergillus flavus [4] = assay: MIC in RPMI medium, A. flavus; format: cell-based; settings: 24-48 hrs at 35° C., >80% growth inhibition, read-out: MIC grade, A. flavus
Procedure: as §1, §2, §3, §4

Aspergillus niger [5] = assay: MIC in YAG medium, A. niger; format: cell-based; settings: 24 hrs at 35° C., >70% growth inhibition, read-out: MIC grade, A. niger
Procedure: as §1, §2, §5, §6

[6] = target: T1, Recombinant DHODH from human (Homo sapiens, UniProt Q02127); assay: DHODH inhibition screen (DCIP reduction, 600 nm), human enzyme; format: biochemical; settings: Table 3, read-out: IC50 values for Compound Examples 1 to 15 identified from screens, Human
T1 construct: His-tag; NusA (Nus-tag) fusion of vector pET43.1 (own knowledge of the vector) (N); made in house; host or cells: E. coli BL21 DE3
T1 sequence (Q02127 31-395 limits assumed): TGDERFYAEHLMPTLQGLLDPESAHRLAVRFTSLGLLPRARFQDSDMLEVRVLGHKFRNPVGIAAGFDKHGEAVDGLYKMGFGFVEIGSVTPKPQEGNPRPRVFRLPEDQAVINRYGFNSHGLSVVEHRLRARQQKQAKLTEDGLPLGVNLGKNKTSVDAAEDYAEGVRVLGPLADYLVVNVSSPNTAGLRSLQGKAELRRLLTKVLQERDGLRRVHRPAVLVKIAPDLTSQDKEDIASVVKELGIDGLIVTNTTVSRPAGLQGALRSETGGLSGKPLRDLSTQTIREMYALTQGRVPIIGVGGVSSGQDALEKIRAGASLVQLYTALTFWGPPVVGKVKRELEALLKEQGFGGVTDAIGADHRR
Procedure: as §7
Coenzyme Q2 (Sigma) was dissolved in DMSO to give a concentration of 10 mg/ml. […] The stock solution was made with 127.36 μl DHO, 127.36 μl DCIP and 318.4 μl Coenzyme Q2, made up to 80 ml with Buffer A. Final concentrations in assay wells were; DHO, 500 μM; Coenzyme Q, 50 μM; DCIP, 100 μM.
2. […] Duplicate sets of plates were used such that one set received enzyme while a control set received no enzyme.
3. […] Then 20 μl of DHODH solution was added to all the +enzyme plates and 20 μl of Buffer A was added to all the control −enzyme plates.
as §8
Recombinant DHODH from human or C. albicans was assayed in the same way. It is necessary to adjust the enzyme concentration and reaction time to take into account variations in activity of enzyme batches, thus the incubation time was 20 minutes for the C. albicans enzyme and 34 minutes for the human enzyme.

[7] = system: Aspergillus fumigatus AF293; assay: MIC in RPMI medium, A. fumigatus; format: cell-based; settings: 24-48 hrs at 35° C., >80% growth inhibition, read-out: MIC grade, A. fumigatus
Procedure: as §1, §2, §3, §4

Aspergillus flavus [8] = assay: MIC in YAG medium, A. flavus; format: cell-based; settings: 24 hrs at 35° C., >70% growth inhibition, read-out: MIC grade, A. flavus
Procedure: as §1, §2, §5, §6

Compound	MIC [1]	MIC (Aspergillus niger [2])	MIC (Aspergillus terreus AT49)	MIC (A. terreus 49)	MIC (A. fumigatus 210)	IC50 [3]	MIC (Aspergillus fumigatus)	MIC (Aspergillus terreus AT4)	MIC (Aspergillus terreus)	MIC (Aspergillus flavus [4])	MIC (Aspergillus niger [5])	IC50 [6]	MIC [7]	MIC (Aspergillus flavus [8])
CCSc1nc2ccccc2c(=O)n1-c1ccccc1C(C)C [Compound Example 15, 2-Ethylsulfanyl-3-(2-isopropyl-phenyl)-3H-quinazolin-4-one]	1 to 10 µg/mL (≈ 3.08 to 30.8 µM)	< 1 µg/mL	> 10 µg/mL	< 1 µg/mL	< 1 µg/mL	46.1 µM	< 1 µg/mL	> 10 µg/mL	1 to 10 µg/mL (≈ 3.08 to 30.8 µM)	> 10 µg/mL	< 1 µg/mL	23.2 µM	< 1 µg/mL	> 10 µg/mL
COc1ccc2nc(SC(C)C)n(-c3ccccc3OC)c(=O)c2c1 [Compound Example 10, 2-Isopropylsulfanyl-6-methoxy-3-(2-methoxy-phenyl)-3H-quinazolin-4-one]	> 10 µg/mL	1 to 10 µg/mL (≈ 2.81 to 28.1 µM)	> 10 µg/mL	< 1 µg/mL	1 to 10 µg/mL (≈ 2.81 to 28.1 µM)	19.6 µM	1 to 10 µg/mL (≈ 2.81 to 28.1 µM)	> 10 µg/mL	1 to 10 µg/mL (≈ 2.81 to 28.1 µM)	> 10 µg/mL	< 1 µg/mL	50.2 µM	> 10 µg/mL	> 10 µg/mL
CCc1ccccc1-n1c(SC(C)C)nc2ccccc2c1=O [Compound Example 9, 3-(2-Ethyl-phenyl)-2-isopropylsulfanyl-3H-quinazolin-4-one]	> 10 µg/mL	< 1 µg/mL	> 10 µg/mL	< 1 µg/mL	< 1 µg/mL	17.7 µM	< 1 µg/mL	> 10 µg/mL	1 to 10 µg/mL (≈ 3.08 to 30.8 µM)	> 10 µg/mL	< 1 µg/mL	123 µM	< 1 µg/mL	> 10 µg/mL
CC(C)Sc1nc2ccccc2c(=O)n1-c1ccccc1C(C)C [Compound Example 8, 3-(2-Isopropyl-phenyl)-2-isopropylsulfanyl-3H-quinazolin-4-one]	1 to 10 µg/mL (≈ 2.95 to 29.5 µM)	< 1 µg/mL	1 to 10 µg/mL (≈ 2.95 to 29.5 µM)	< 1 µg/mL	< 1 µg/mL	12.2 µM	< 1 µg/mL	> 10 µg/mL	< 1 µg/mL	> 10 µg/mL	< 1 µg/mL	131 µM	< 1 µg/mL	> 10 µg/mL
CCSc1nc2cc(C)ccc2c(=O)n1-c1ccccc1OC [Compound Example 5, 2-Ethylsulfanyl-3-(2-methoxy-phenyl)-7-methyl-3H-quinazolin-4-one]	1 to 10 µg/mL (≈ 3.06 to 30.6 µM)	> 10 µg/mL	1 to 10 µg/mL (≈ 3.06 to 30.6 µM)	< 1 µg/mL	< 1 µg/mL	5.4 µM	< 1 µg/mL	1 to 10 µg/mL (≈ 3.06 to 30.6 µM)	< 1 µg/mL	> 10 µg/mL	< 1 µg/mL	15.5 µM	1 to 10 µg/mL (≈ 3.06 to 30.6 µM)	< 1 µg/mL
COc1ccccc1-n1c(SC(C)C)nc2ccc(N(C)C)cc2c1=O [Compound Example 6, 6-Dimethylamino-2-isopropylsulfanyl-3-(2-methoxy-phenyl)-3H-quinazolin-4-one]	1 to 10 µg/mL (≈ 2.71 to 27.1 µM)	< 1 µg/mL	> 10 µg/mL	1 to 10 µg/mL (≈ 2.71 to 27.1 µM)	1 to 10 µg/mL (≈ 2.71 to 27.1 µM)	10.1 µM	1 to 10 µg/mL (≈ 2.71 to 27.1 µM)	> 10 µg/mL	1 to 10 µg/mL (≈ 2.71 to 27.1 µM)	> 10 µg/mL	< 1 µg/mL	1.09 µM	> 10 µg/mL	> 10 µg/mL
